Reference: US20230234936A1, “COMPOUND FOR TARGETING AND DEGRADING PROTEIN, AND PREPARATION METHOD THEREFOR AND USE THEREOF” (SHANGHAI LEADINGTAC PHARMACEUTICAL CO., LTD., priority 2020, published 2023)
pIC50: −log10 of the molar value.

Experiments:
[1] = test system: Interleukin-6 (IL-6) in LPS-induced human PBMC; assay: Cytokine secretion of LPS-induced human PBMC, IL-6 AlphaLISA detection; format: cell-based; conditions: inhibition of IL-6, compound 1 hour or 20 hours, then LPS 100 ng/mL 5 hours
Method: Frozen human PBMC (Milestone, PB010C) was resuspended to RPMI 1640 medium (Gibco, A1049101) after resuscitation, supplemented with 10% fetal bovine serum (Gibco, 10099141), 100 U/mL penicillin and 100 μg/mL streptomycin (Gibco, 15140122). On the same day, 150 μL of PBMC was spread in each well of a 96-well transparent cell plate (Labserv, 310109008), so that the cell density was 2×10^5 cells/well. Then 50 μL diluted compound solution was added to the corresponding cell-covered wells to make the final concentration of the compound in the range of 0.026-10000 nM. The final concentration of DMSO was 0.25%. After the drug-treated cell plate was cultured at 37° C. for 1 hour or 20 hours in a 5% CO2 incubator, 10 μL LPS (0111:B4) (Sigma, L4391) was added with a final concentration of 100 ng/mL. The cell plate was again placed in a 5% CO2 incubator at 37° C. for 5 hours, centrifuged at 2000 rpm for 10 minutes, and 100 μL cell supernatant was taken from each well and transferred to a new 96-well transparent cell plate for cytokine concentration test, which was frozen at −80° C. to be tested.
The concentration of IL-6 in the supernatant of LPS-induced human PBMC cells was determined using interleukin-6 (IL-6) AlphaLISA detection kit (PerkinElmer, AL223 C).
According to the product instructions, IL-6 standard solutions with different concentrations were prepared in the concentration range of […]. 2 μL of IL-6 standard solution at various concentrations and the cell supernatant sample to be tested were taken, respectively added to white 384 well plates (PerkinElmer, 6007299), then a mixed solution of 8 μL of 5× anti-IL-6 receptor beads (final concentration: 10 μg/mL) and biotin-labeled anti-IL-6 antibody (final concentration 1 nM) was added to each well, and incubated at 23° C. for 60 minutes. Finally, 10 μL of 2× streptavidin-labeled donor beads (final concentration: 40 μg/mL) were added to each well and incubated at 23° C. for 30 minutes in the absent of light. After the incubation, the AlphaLISA signal value was determined in the AlphaScreen standard setting mode on the microplate reader EnVision(PerkinElmer, 2105). The standard curve was drawn by the AlphaLISA signal value of each concentration IL-6 standard solution, and then based on the corresponding concentration on the standard curve for the AlphaLISA signal value of the sample to be tested, the IL-6 concentration of each cell lysis supernatant was determined. Compared with the IL-6 concentration of the control group, the inhibition rate of the compound at each concentration was calculated, and then IC50 value of the compound was calculated by fitting the nonlinear curve with the logarithmic concentration-inhibition rate by GraphPad Prism 7.

IKZF1 in L363 cells = target: T1, IKZF1 in L363 cells (Homo sapiens, UniProt Q13422+Q96SW2); assay: Degradation of IKZF1 in L363 cells (Western blot); format: cell-based; conditions: 1000 nM, 16 hours
T1 construct: endogenous in cells; host or cells: L363
Method: The 24-well cell culture plate was inoculated with 0.95 mL L363 cells (Nanjing Co-bioer) per well with a cell density of 6×10^5 cells/well. The cell plate was placed in a 5% carbon dioxide incubator and cultured at 37° C. for 8 hours, then 50 μL of compound solution was added. The final concentration of the compound was 1000 nM. After continuing to culture for 16 hours, the cells were collected into a 1.5 mL centrifuge tube and centrifuged at 3000 rpm and 4° C. for 5 minutes. Cell precipitation was cleaned twice with 1×DPBS, resuspended cells were lysed with 100 μL lysate (cell lysate was Western and IP cell lysate (Beyotime), supplemented with 1 mM mixture of phenylmethylsulfonyl fluoride and protease inhibitor (Beyotime)), left on ice for 30 minutes, then centrifuged at 14000 g at 4° C. for 10 minutes, and the supernatant was taken to detect IKZF1 and IKZF3 protein level by Western blot.
The total protein concentration in the supernatant of cell lysis was determined by BCA protein quantitative kit (Tiangen). According to the concentration of total protein detected by BCA, the supernatant was adjusted to 0.2 μg/μL with PBS and 5× SDS-PAGE protein loading buffer (Beyotime), bathed in water at 100° C. for 10 minutes, then placed in ice bath for 5 minutes, centrifuged at 14000 g and 4° C. for 5 minutes, and then collected as WB loading sample. Prefabricated glue (KeyGEN) was used for protein electrophoresis with a loading amount of 10 μL (total protein 2 μg). After Tris-MOPS-SDS electrophoresis solution (Adamas), 120V constant pressure electrophoresis was performed. After electrophoresis, the protein on the adhesive strip was transferred to PVDF membrane with a constant current of […] for 50 minutes. After the membrane was transferred, the membrane was incubated in 5% bovine serum albumin solution for 2 hours at room temperature. After blocking, PVDF membranes were incubated with IKZF1 primary antibody (CST) and IKZF3 primary antibody (Abcam) overnight at 4°, the membranes were washed with TBST buffer (2.4 g Tris, 8.8 g NaCl, 1.5 mL Tween 20, pH adjusted to 7.4, constant volume to IL) for 30 minutes, incubated with secondary antibody (Abcam) for 2 hours at room temperature, finally incubated with Clarity Western ECL Substrate(BIO-RAD) for 5 minutes for luminescence development, chemiluminescence imaging system (Clinx, chemiScope 6200 Touch) for development and protein mapping photography. The protein map was analyzed by Clinx chemiluminescence analysis software for grayscale values. Using the formula: grayscale correction value=(target protein grayscale value/corresponding internal reference grayscale value)×10^3, the grayscale correction value of each sample was calculated. The degradation rate was calculated by comparing with the grayscale correction value of the control group.

T1 sequence (Q13422 whole entry): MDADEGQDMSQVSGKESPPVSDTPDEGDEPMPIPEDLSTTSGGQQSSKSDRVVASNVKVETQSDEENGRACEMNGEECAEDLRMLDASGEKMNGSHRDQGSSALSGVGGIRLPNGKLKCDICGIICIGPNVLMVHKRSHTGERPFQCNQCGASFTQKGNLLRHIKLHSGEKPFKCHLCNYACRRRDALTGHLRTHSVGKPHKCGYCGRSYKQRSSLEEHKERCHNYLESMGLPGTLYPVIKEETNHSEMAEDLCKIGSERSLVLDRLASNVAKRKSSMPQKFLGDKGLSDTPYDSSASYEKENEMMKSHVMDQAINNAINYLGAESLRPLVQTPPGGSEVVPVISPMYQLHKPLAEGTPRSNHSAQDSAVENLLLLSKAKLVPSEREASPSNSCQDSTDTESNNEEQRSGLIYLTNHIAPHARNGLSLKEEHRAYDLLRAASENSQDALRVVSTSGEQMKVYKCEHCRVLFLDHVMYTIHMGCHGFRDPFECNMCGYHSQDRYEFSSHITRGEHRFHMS
T1 sequence (Q96SW2 whole entry): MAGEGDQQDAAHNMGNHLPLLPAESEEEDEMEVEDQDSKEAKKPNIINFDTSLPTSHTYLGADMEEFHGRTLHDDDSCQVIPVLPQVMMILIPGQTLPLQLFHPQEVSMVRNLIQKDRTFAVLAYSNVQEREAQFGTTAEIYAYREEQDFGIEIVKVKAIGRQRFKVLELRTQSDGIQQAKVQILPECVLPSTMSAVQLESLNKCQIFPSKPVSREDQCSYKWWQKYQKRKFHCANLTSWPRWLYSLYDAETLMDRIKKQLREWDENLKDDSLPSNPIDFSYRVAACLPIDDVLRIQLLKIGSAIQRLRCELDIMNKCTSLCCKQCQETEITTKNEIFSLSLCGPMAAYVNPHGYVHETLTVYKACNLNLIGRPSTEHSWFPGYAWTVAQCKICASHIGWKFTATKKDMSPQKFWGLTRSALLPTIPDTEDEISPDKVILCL
T1 sequence (Q16531 whole entry partner): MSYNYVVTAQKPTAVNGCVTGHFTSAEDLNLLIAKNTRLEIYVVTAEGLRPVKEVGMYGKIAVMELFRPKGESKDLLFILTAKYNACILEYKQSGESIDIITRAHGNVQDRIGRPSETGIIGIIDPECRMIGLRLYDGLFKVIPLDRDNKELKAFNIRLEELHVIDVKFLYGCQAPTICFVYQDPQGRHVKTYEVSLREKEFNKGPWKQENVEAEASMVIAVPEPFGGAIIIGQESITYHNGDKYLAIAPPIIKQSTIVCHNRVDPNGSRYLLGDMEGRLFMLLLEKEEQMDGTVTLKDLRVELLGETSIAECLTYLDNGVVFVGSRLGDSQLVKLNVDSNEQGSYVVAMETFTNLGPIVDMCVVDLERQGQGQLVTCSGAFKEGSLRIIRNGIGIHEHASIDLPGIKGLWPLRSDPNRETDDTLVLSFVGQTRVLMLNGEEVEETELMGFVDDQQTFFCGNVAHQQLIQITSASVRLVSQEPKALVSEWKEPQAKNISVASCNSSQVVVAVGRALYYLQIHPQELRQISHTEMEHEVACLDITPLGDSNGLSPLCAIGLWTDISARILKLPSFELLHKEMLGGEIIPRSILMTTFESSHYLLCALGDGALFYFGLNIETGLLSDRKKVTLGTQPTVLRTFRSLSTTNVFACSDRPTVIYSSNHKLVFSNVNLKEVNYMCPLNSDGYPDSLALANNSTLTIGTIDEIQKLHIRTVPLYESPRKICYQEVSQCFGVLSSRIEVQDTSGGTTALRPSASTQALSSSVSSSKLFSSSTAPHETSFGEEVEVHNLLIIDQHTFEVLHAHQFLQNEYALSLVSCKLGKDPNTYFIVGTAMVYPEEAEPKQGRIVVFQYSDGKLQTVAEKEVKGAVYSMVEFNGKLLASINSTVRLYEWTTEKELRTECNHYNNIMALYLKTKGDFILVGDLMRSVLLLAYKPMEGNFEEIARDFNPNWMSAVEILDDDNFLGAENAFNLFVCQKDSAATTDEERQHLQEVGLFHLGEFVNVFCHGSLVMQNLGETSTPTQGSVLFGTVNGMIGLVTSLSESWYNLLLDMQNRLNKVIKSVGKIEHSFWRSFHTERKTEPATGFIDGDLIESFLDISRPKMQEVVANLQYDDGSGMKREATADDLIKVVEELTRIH

Row | SMILES | pIC50 [1] | IKZF1 degradation rate (IKZF1 in L363 cells)
1 | COc1cc2nn(C3CCN(CC4CCN(CCOc5ccc6c(c5)C(=O)N(C5CCC(=O)NC5=O)C6=O)CC4)CC3)cc2cc1NC(=O)c1cccc(C(F)(F)F)n1 (stereo not drawn) [Control group 2, N-(2-(1-((1-(2-((2-(2,6-dioxopiperidin-3-yl)-1,3-dioxoisoindol-5-yl)oxy)ethyl)piperidin-4-yl)methyl)piperidin-4-yl)-6-methoxy-2H-indazol-5-yl)-6-(trifluoromethyl) pyridinecarboxamide, reference compound] | 5.69 | 47.5 ± 9.7%
2 | CN(CC1CCN(c2cccc3c2C(=O)N(C2CCC(=O)NC2=O)C3=O)CC1)C[C@H]1CC[C@H](n2cc3cc(NC(=O)c4cccc(C(F)(F)F)n4)c(C(C)(C)O)cc3n2)CC1 (stereo partly drawn) [Control group 3, N-(2-((1r,4r)-4-((((1-(2-(2,6-dioxopiperidin-3-yl)-1,3-dioxoisoindolin-4-yl)piperidin-4-yl)methyl) (methyl)amino)methyl)cyclohexyl)-6-(2-hydroxyprop-2-yl)-2H-indazol-5-yl)-6-(trifluoromethyl) pyridinecarboxamide, reference compound] | 7.32 | 97.2 ± 2.6%
3 | CC(C)(O)c1cc2nn(C3CCN(CC4CCC5(CC4)CCN(C(=O)c4ccc(Cl)c(N6CCC(=O)NC6=O)c4)CC5)CC3)cc2cc1NC(=O)c1cccc(C(F)(F)F)n1 [Example 31, N-(2-(1-((3-(4-chloro-3-(2,4-dioxotetrahydro-pyrimidin-1 (2H)-yl)benzoyl)-3-azaspiro [5.5]undec-9-yl)methyl)piperdin-4-yl)-6-(2-hydroxyprop-2-yl)-2H-indazol-5-yl)-6-(trifluoro-methyl) pyridinecarbox-amide] | 8.74 | 8.4 ± 13.9%
